Assay results published in publication PMC7954794, “Protein context shapes the specificity of SH3 domain-mediated interactions in vivo” (Nature Communications, 2021).

Columns and labels:
Type in all cases: cell-based, Saccharomyces cerevisiae
ABP1 = assay: DHFR-PCA on solid medium, bait ABP1 (Fig. 1B); conditions: bait ABP1, label = prey; 2-4 replicates
Excerpt: (§1) Supplement 41467_2021_21873_MOESM8_ESM.xlsx, sheet "Fig1B" | column: medsize; medrep; Ratio; Score

BEM1-2 = assay: DHFR-PCA on solid medium, bait BEM1-2 (Fig. 1B); conditions: bait BEM1-2, label = prey; for medrep (log2 median colony size normalized to plate background, PCA score): 2-8 replicates; for Ratio (SH3-deleted/WT medrep): only significant differences showed, PPIs completely lost have a ratio of 0.1 and the gained PPIs 2.5
Excerpt: as §1

BBC1 = assay: DHFR-PCA on solid medium, bait BBC1 (Fig. 1B); conditions: bait BBC1, label = prey; for medrep (log2 median colony size normalized to plate background, PCA score): 2-4 replicates
Excerpt: as §1

[1] = system: 575 putative partners (preys) of 22 WT SH3-containing proteins; assay: DHFR-PCA on solid medium, WT and SH3-deleted baits (Fig. 1B); parameters: key to Score: 0: SH3-independent; 1: SH3-dependent PPIs; 2: SH3-inhibited PPIs; conditions: for medrep (log2 median colony size normalized to plate background, PCA score): label = prey
Excerpt: To assess the requirement of SH3 domains for PPIs in vivo, we first measured binary interactions between 22 WT SH3-containing proteins (Supplementary Fig. 1A) as baits and 575 putative partners from their interconnected signaling networks using the dihydrofolate reductase protein–fragment complementation assay (DHFR-PCA) in the budding yeast Saccharomyces cerevisiae. About 33% (202/607) of the PPIs detected were described before, mostly by direct methods (Supplementary Fig. 1B, C)[11]. We repeated the experiments with baits in which the SH3s were individually replaced with a flexible linker by genome editing (SH3 domain deletion/stuffing, Fig. 1A). The stuffer DNA sequence ([…]) codes for a small flexible poly-Gly with Ser peptide ([…]) that is inspired by previous experiments[12],[13]. About a third of the SH3-containing protein interactome is qualitatively or quantitatively SH3-dependent (171 PPIs out of 607, Fig. 1B and Supplementary Fig. 1B, C). We validated the vast majority of the quantitative changes in low-throughput experiments and excluded that this is simply due to changes in protein abundance in most cases (Supplementary Fig. 1D–G). SH3-binding motifs[14] are more frequent in the SH3-dependent PPI partners when compared to sequences from random proteins, SH3-independent PPI partners or PPI partners that are stronger or gained following SH3 deletions (p values = 1.5 × 10^−17, 0.0038 and 2.1 × 10^−08, respectively; Mann–Whitney test, one-tailed, Fig. 1C). The changes we measure are therefore enriched for PPIs that depend on the direct interactions of the domains with the PPI partners.
The complete list of strains, primers, and gRNAs used in this study can be found in Supplementary Tables 1–3. All constructed yeast strains were validated by polymerase chain reaction (PCR) and confirmed by Sanger sequencing of the locus of interest. Bait strains for the DHFR-PCA experiments were constructed as follows. The genes of interest were fused at their genomic 3′ end by replacing the stop codon with a linker ([…]), the DHFR F[1,2] followed by a smaller linker (GGGGS), a 1× FLAG tag ([…]) and the NATMX4 resistance cassette via homologous recombination (all amplified from pAG25-DHFR[1,2]-linker-FLAG). The set of 615 prey strains (DHFR F[3] fusions in the BY4742 background) were retrieved from the Yeast Protein Interactome Collection[43] with the exception of 73 that were reconstructed (Supplementary Tables 1 and 2). Knockout strains were taken from the yeast knockout collection except for ABP1, BEM1, BZZ1, and SLA1, which were reconstructed by replacing the ORFs with the NATMX4 resistance cassette by homologous recombination in the BY4741 background.
Yeast SH3 domain genomic sequences were replaced by CRISPR–Cas9 genome editing. Each SH3 domain (as defined by the SMART database V8.0 except for Ysc84 SH3 (as defined by PROSITE), see Source Data for all SH3 sequences and Supplementary Table 1 for primers used) was specifically targeted by one gRNA[46]. Yeast competent cells were co-transformed with a pCAS plasmid (Addgene plasmid 60847[47]) expressing both the gRNA of interest and Streptococcus pyogenes Cas9[46] and a donor DNA sequence (stuffer) with 60 bp homology arms surrounding the SH3 DNA sequence. The Stuffer DNA was either PCR amplified or digested from a plasmid. The stuffer DNA sequence ([…]) codes for a small flexible linker ([…]) inspired by protein linkers used in structural biology[12],[13]. This type of linker is frequently used for fusing proteins without affecting the structure of the linked proteins.
The overall DHFR-PCA pipeline is based on Tarassov et al.[43] and the procedures have also been published as a visualized protocol. The screens were performed with robotically manipulated pin tools (BM5-SC1, S&P Robotics Inc.). First, the preys were cherry-picked from 96-well plates to omnitrays in a 384 format on YPD + HPH solid media. […]

BOI1 = assay: DHFR-PCA on solid medium, bait BOI1 (Fig. 1B); conditions: bait BOI1, label = prey
Excerpt: as §1

BEM1-1 = assay: DHFR-PCA on solid medium, bait BEM1-1 (Fig. 1B); conditions: bait BEM1-1, label = prey
Excerpt: as §1

BOI2 = assay: DHFR-PCA on solid medium, bait BOI2 (Fig. 1B); conditions: bait BOI2, label = prey
Excerpt: as §1

[2] = only significant differences showed, PPIs completely lost have a ratio of 0.1 and the gained PPIs 2.5
[3] = bait SLA1-3, DHFR-PCA, Replicates 4 (2 for YCR009C, YDR388W, YIL033C)

Substance	medrep (log2 median colony size normalized to plate background, PCA score) (ABP1)	medrep (log2 median colony size normalized to plate background, PCA score) (BEM1-2)	Ratio (SH3-deleted/WT medrep) (BEM1-2)	medrep (log2 median colony size normalized to plate background, PCA score) (BBC1)	Ratio (SH3-deleted/WT medrep) (BBC1; [2])	medrep (log2 median colony size normalized to plate background, PCA score) [1, 3]	Score ([1]; bait SLA1-3, label = prey)	medrep (log2 median colony size normalized to plate background, PCA score) (BOI1; 3-8 replicates)	Ratio (SH3-deleted/WT medrep) (BOI1; [2])	medrep (log2 median colony size normalized to plate background, PCA score) (BEM1-1; 2-8 replicates)	Ratio (SH3-deleted/WT medrep) (BEM1-1; [2])	medrep (log2 median colony size normalized to plate background, PCA score) ([1]; bait SLA1-2, DHFR-PCA, Replicates 4 (2 for YCR009C, YDR388W))	Score ([1]; bait SLA1-2, label = prey)	Ratio (SH3-deleted/WT medrep) ([1]; bait SLA1-2, label = prey, only significant differences shown, PPIs completely lost have a ratio of 0.1, gained PPIs 2.5)	medrep (log2 median colony size normalized to plate background, PCA score) (BOI2; 3-8 replicates)	Ratio (SH3-deleted/WT medrep) (BOI2; [2])
YGL206C	4.275	1.4327	2.5	1.387	0.4969	4.577	0	1.512	0.1							
YMR109W (PMFEAAYDFPGSGSPSELPLKKGDVIYITREEPSGWSLGKLLDGSKEGWVPTAYMKPHS)	4.62	1.531	0.1	5.231		3.8664	0			1.531	0.1	3.8664	1	0.1	1.504	0.1
